# Measured values published in US20180078615A1, “USE OF CCL2 TO INHIBIT ABNORMAL UTERINE BLEEDING” (UNIVERSITY OF SOUTH FLORIDA, priority 2015, published 2018).
# Columns and labels:
# VSMCs [1] = assay: Transwell insert migration assay; type: cell-based, human; details: 12-h incubation, 10^−7 M; control 48.4%
# Method: VSMCs (75,000 cells/200 μL) were suspended in M231 containing 1% charcoal striped FBS and either 0.1% ethanol (vehicle control) or the corresponding steroids and seeded onto insert wells (transwell filter with 12-μm pores; EMD Millipore). The inserts were then placed in 24-well plates containing 500 μL M231 with 1% charcoal striped FBS. After 12 h, cells remaining on the upper surface of the filter were removed with a cotton swab. Migrated cells were trypsinized, centrifuged, and resuspended in 200 μL of M231 medium. The cell suspensions were mixed with 200 μL 10% ethanol containing 0.4% Trypan blue dye and the live cell number was counted by Countess Automated Cell Counter (Invitrogen). See further details in SI Materials and Methods.
# Cultured VSMCs were grown in T-75 cell culture flasks in M231 (Life Technologies) with smooth muscle growth supplement (Life Technologies) with 100 U/mL penicillin, 100 μg/mL streptomycin, 0.25 μg/mL fungizone. Confluent VSMCs were washed twice with 1×PBS to remove residual serum, and then trypsinized, resuspended (75,000 cells per 200 μL per well) in M231 with 1% charcoal striped FBS with 0.1% ethanol (vehicle, control), 10^−7 M MPA (Sigma-Aldrich), 10^−7 M ETO (Organon), or 10^−7 M P4 (Sigma-Aldrich)±rCCL2 (R&D Systems) and seeded on insert wells (transwell filter with 12-μm pores; EMD Millipore), which were then placed in 24-well plates containing 500 μL M231 with 1% charcoal striped FBS. After 12 h, cells remaining on the upper surface of the filter were removed with a cotton swab. Migrated cells attached to the lower surface of each insert or to the surface of lower wells were collected by trypsinization, followed by centrifugation and resuspension in 200 μL of M231 medium. The cell suspensions were mixed with 200 μL 10% ethanol containing 0.4% Trypan blue dye (selectively stains only dead cells blue, whereas live cells with intact cell membranes remain unstained) for 5 min. A mixture of 100 μL M231 and 100 μL 10% ethanol containing 0.4% Trypan blue dye was used as a negative control. To detect live cell numbers, 10 μL of final cell/Trypan blue dye suspension from each treatment condition was pipetted into Countess Cell Counting Chamber Slide and counted by using Countess Automated Cell Counter (Invitrogen). The counting procedure was performed in duplicate.
# VSMCs [2] = assay: Whole genome microarray analysis (Illumina HumanHT-12 v4) of cultured VSMCs treated with progestins; type: cell-based, human; details: VSMCs treated by MPA
# Excerpt: Cultured VSMCs (n=3) treated with control medium or medium containing medroxyprogesterone acetate (MPA, 10^−7 M), or etonogestrel (ETO, 10^−7 M) were processed for whole genome analyses using Illumina Human microarray kit. After qRT-PCR confirmation of several up and down regulated genes from microarray data, Ingenuity Pathway Analysis (IPA) determined relevant upstream signaling of LAPC altered gene expression. To investigate the role of genes and relevant signaling molecules identified by IPA, VSMCs (n=3) treated with MPA or ETO±1 or 10 ng/ml recombinant CCL2 (rCCL2)±STAT1 inhibitor, 5′-methyl-thioadenosine (MTA, 100 μM) were analyzed by BrdU incorporation proliferation, TUNEL based ELISA apoptosis and Transwell insert migration assays.
# VSMCs were thawed and cultured in medium 231 (M231; Life Technologies) with smooth muscle growth supplement (5% FBS; 2 ng/mL human basic fibroblast growth factor, 0.5 ng/mL human epidermal growth factor, 5 ng/mL heparin, 0.2 μg/mL insulin and 5 μg/mL BSA; Life Technologies) with 100 U/mL penicillin, 100 μg/mL streptomycin, 0.25 μg/mL fungizone. Confluent VSMCs were washed twice with 1×PBS to remove residual serum, passaged in 96-well or 6-well plates and incubated in parallel in M231 with 1% charcoal striped FBS with 0.1% ethanol (vehicle, control) or 10^−7 M MPA (Sigma-Aldrich) or 10^−7 M ETO (Organon) or 10^−7 M P4 (Sigma-Aldrich) for 15 min, 6, 48, and 72 h. VSMCs were then washed with ice-cold PBS and stored at −80° C. for further RNA and protein analyses.
# Total RNA was isolated using Qiagen miRNeasy Mini Kit (Qiagen) and RNeasy MinElute Cleanup Kit (Qiagen). The quality of isolated RNAs was confirmed using an Agilent 2100 Bioanalyzer. Microarray analysis was limited to those specimens in which RNA Integrity Number exceeded 8. Microarray processes were performed in the Keck Biotechnology Resource Laboratory at Yale University (New Haven, Conn.) using Illumina Human HT-12 v4 BeadChip (Illumina). Raw data without normalization were analyzed by GeneSpring GX12.5 software (Agilent Technologies-Silicon Genetics). Normalization was performed as described (35). Genes with a fold-change >1.25 and a P value<0.05 were considered differentially expressed. Ingenuity Pathway Analysis (IPA) software (Qiagen) explored molecular and biological networks related to differentially expressed genes.
structure (smiles),measurement,setting,value
"CC(=O)O[C@]1(C(C)=O)CC[C@H]2[C@@H]3C[C@H](C)C4=CC(=O)CC[C@]4(C)[C@H]3CC[C@@]21C [MPA, medroxyprogesterone acetate]",migration rate,VSMCs [1],18.7%
same,"Fold-change, ABI gene family, member 3 (NESH) binding protein (ABI3BP)",VSMCs [2],−2.045
same,"Fold-change, Actin, γ 2, smooth muscle, enteric (ACTG2)",VSMCs [2],2.761
same,"Fold-change, Alcohol dehydrogenase 1A (class I), α polypeptide (ADH1A)",VSMCs [2],2.49
same,"Fold-change, Bradykinin receptor B1 (BDKRB1)",VSMCs [2],−2.041
same,"Fold-change, Chemokine (C-C motif) ligand 2 (CCL2)",VSMCs [2],−4.123
same,"Fold-change, Collectin subfamily member 12 (COLEC12)",VSMCs [2],−2.177
same,"Fold-change, Complement factor B (CFB)",VSMCs [2],−3.17
same,"Fold-change, Complement factor D (adipsin) (CFD)",VSMCs [2],2.794
same,"Fold-change, Cysteine-rich secretory protein LCCL domain containing 2, (CRISPLD2)",VSMCs [2],3.721
same,"Fold-change, DNA-damage regulated autophagy modulator 1 (DRAM1)",VSMCs [2],−2.149
same,"Fold-change, Decorin, transcript variant A2 (DiCN)",VSMCs [2],2.515
same,"Fold-change, EF-hand domain family, member D1 (EFHD1)",VSMCs [2],2.294
same,"Fold-change, Fibrillin 2 (FBN2)",VSMCs [2],2.642
same,"Fold-change, Filaggrin (FLG)",VSMCs [2],−2.306
same,"Fold-change, Glutathione peroxidase 3 (plasma) (GPX3)",VSMCs [2],2.827
same,"Fold-change, H19, imprinted maternally expressed transcript noncoding RNA (H19)",VSMCs [2],5.441
same,"Fold-change, Hypothetical protein FLJ40504 (FLJ40504)",VSMCs [2],−2.331
same,"Fold-change, Indolethylamine N-methyltransferase (INMT)",VSMCs [2],2.187
same,"Fold-change, Insulin-like growth factor binding protein 2, 36 kDa (IGFBP2)",VSMCs [2],2.367
same,"Fold-change, Interleukin 1, β (IL1B)",VSMCs [2],−2.325
same,"Fold-change, LY6/PLAUR domain containing 1, transcript variant 1 (LYPD1)",VSMCs [2],−2.21
same,"Fold-change, Latexin (LXN)",VSMCs [2],−2.939
same,"Fold-change, Leptin (obesity homolog, mouse) (LEP)",VSMCs [2],4.042
same,"Fold-change, Matrix Gla protein, transcript variant 1 (MGP)",VSMCs [2],3.615
same,"Fold-change, Matrix Gla protein, transcript variant 2 (MGP)",VSMCs [2],3.221
same,"Fold-change, Natriuretic peptide precursor B (NPPB)",VSMCs [2],−2.371
same,"Fold-change, PREDICTED: keratin 18 pseudogene 13 (KRT18P13)",VSMCs [2],−2.209
same,"Fold-change, PREDICTED: similar to LYPDC1 protein (LOC100134073)",VSMCs [2],−2.401
same,"Fold-change, Pleckstrin homology-like domain, family A, member 1 (PHLDA1)",VSMCs [2],−2.17
same,"Fold-change, Potassium voltage-gated channel, shaker-related subfamily, 0 member 1, transcript variant2 (KCNAB1)",VSMCs [2],−2.055
same,"Fold-change, Prostaglandin-endoperoxide synthase 1, transcript variant 2 (PTGS1)",VSMCs [2],2.437
same,"Fold-change, Retinoic acid receptor responder (tazarotene induced) 1, transcript variant 1, (RARRES1)",VSMCs [2],−4.061
same,"Fold-change, Retinoic acid receptor responder (tazarotene induced) 1, transcript variant 2, (RARRES1)",VSMCs [2],−2.994
same,"Fold-change, Superoxide dismutase 2, mitochondrial, transcript variant 2, (SOD2)",VSMCs [2],−2.208
same,"Fold-change, Sushi domain containing 2 (SUSD2)",VSMCs [2],2.901
same,"Fold-change, Transmembrane protein 119 (TMEM119)",VSMCs [2],2.258
same,"Fold-change, UDP-N-acetyl-alpha-D-galactosamine:polypeptide N-acetylgalactosaminyltransferase 12 (GALNT12)",VSMCs [2],−2
same,"Fold-change, Wingless-type MMTV integration site family, member 5A (WNT5A)",VSMCs [2],2.218
same,"Fold-change, Collagen, type VIII, α 1, transcript variant 2 (COL8A1)",VSMCs [2]; table entry 11,2.628
same,"Fold-change, Collagen, type VIII, alpha 1, transcript variant 2 (COL8A1)",VSMCs [2]; table entry 14,2.439
